Each structure is given as a SMILES string. pIC50: −log10 of the molar value.

Consider one compound from patent US20190212343A1, “METHODS FOR THE TREATMENT OF DISORDERS RELATED TO PHOSPHORYLATION OF HISTONES” (H. LEE MOFFITT CANCER CENTER AND RESEARCH INSTITUTE, INC., priority 2014, published 2019).

Assay [1] has as its system LNCaP cells. Nature of the assay: Cell proliferation assay, viable cells counted by trypan blue exclusion. In kind it is cell-based, human. To be noted: charcoal stripped media, 36 hrs, read-out: IC50, inhibition of cell growth. On the procedure:
(§1) FIGS. 5A and 5B show cell proliferation assay. (FIG. 5A) LNCaP and (FIG. 5B) VCaP cells were grown in charcoal stripped media and treated with 1, 2.5, 5 and 10 uM of inhibitors (36 hrs) and number of viable cells were counted by trypan blue exclusion assay
(§2) Applicant also assessed ability of the new Ack1 inhibitors to suppress proliferation of prostate cancer cell lines. […] Overall, it appears that ACK I is needed for androgen-independent growth of prostate cancer cells.

Assay [2] relates to VCaP cells. Described as above. In kind it is cell-based, human. To be noted: androgen-independent VCaP cells, charcoal stripped media, 36 hrs; read-out: IC50, inhibition of cell growth. As for the experimental part:
as §1, §2

Assay [3] deals with SLC6A4 mRNA. Nature of the assay: SLC6A4 mRNA expression (real time RT-PCR). Type of assay: cell-based, human. To be noted: inhibition of ACK1 by small molecule inhibitor. As for the experimental part: The ratio of SLC6A4 to actin is shown. (FIG. 5D) JAR cells were treated with EGF ligand and ChIP was performed using pY99-H3 antibodies followed by quantitative PCR using primers corresponding to intron 2 (VNTR). […]
Applicant also identified for the first time that human and mouse serotonin transporter (SLC6A4 or SERT or 5-HTT) gene expression is regulated by ACK1. A novel mechanism was identified that is operational in SLC6A4 gene regulation. ACK1 deposits pY99-H3 epigenetic marks in promoter (5-HTTLPR) and intron 2 (VNTR) of SLC6A4 gene to regulate its transcription. […] Without being bound by theory, applicant believes that expression of Gabra6, Slc6a2, Slc6a4, Slc6a5 and Oxt genes as well as genes shown in Table 2 are also regulated by ACK1/pY99-H3 epigenetic activity/signaling.
Background: Quantitative PCR measures a nucleic acid by following its amplification.

The target in assay [4] is T1, ACK1 (Homo sapiens, UniProt Q07912).
T1 construct: made in house; host or cells: insect cells
T1 sequence (Q07912 whole entry): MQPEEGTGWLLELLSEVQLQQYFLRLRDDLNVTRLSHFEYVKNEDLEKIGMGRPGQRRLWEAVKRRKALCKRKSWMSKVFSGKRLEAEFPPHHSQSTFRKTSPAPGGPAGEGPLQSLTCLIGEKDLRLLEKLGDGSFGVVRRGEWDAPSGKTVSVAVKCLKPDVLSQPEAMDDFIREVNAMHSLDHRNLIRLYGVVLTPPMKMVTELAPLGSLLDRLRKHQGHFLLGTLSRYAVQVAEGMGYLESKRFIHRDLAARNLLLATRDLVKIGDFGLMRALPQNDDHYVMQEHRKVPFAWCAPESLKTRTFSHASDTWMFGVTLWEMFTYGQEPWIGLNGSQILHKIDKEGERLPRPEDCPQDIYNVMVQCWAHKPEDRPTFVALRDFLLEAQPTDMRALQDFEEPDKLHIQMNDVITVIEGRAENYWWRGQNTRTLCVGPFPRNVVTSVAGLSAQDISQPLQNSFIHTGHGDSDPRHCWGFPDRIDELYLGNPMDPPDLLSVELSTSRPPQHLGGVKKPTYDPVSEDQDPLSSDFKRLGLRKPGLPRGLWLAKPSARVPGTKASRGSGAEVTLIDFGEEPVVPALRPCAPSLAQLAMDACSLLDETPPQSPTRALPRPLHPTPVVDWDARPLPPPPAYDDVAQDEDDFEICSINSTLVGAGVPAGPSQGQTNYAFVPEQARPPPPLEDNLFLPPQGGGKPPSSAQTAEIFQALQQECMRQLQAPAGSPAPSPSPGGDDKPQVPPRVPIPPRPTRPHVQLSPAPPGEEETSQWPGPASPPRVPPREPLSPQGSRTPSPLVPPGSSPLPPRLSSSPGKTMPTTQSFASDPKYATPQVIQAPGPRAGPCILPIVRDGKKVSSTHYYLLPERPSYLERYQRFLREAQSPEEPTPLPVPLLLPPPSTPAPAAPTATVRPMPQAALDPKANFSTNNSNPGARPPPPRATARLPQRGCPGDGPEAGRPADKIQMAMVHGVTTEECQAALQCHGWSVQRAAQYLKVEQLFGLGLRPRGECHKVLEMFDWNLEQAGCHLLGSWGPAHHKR
Nature of the assay: In vitro kinase assay with purified ACK1 and H4, immunoblotting with pTyr antibodies. Type of assay: biochemical. The following applies: purified ACK1 and H4, AIM-100 100 nM. As for the experimental part: FIGS. 9A-9E show ACK1 phosphorylates histone H4 at Tyrosine 88. (FIG. 9A) peptide were spotted followed by immunoblotting with indicated antibodies. (FIG. 9B) Equimolar amounts of purified ACK1 and H4 proteins were incubated in the presence of AIM-100 (100 nM) and reaction subjected to immunoblotting with pTyr antibodies. (FIG. 9C) In vitro kinase assay performed using purified ACK1 and H4, followed by immunoblotting with pY88-H4 antibodies. (FIG. 9D) H4 Y88-phosphorylation in vivo. LNCaP cells were treated with DZI-067, AIM-100 or Enzalutamide (7 uM, 16 hrs). The nuclear lysates were immunoprecipitated with pY88-H4 antibodies followed by immunoblotting with H4. Lower panel is input lysate. (FIG. 9E) LNCaP cells were treated with Crizotinib (1 uM, 16 hrs). The cell lysates were immunoprecipitated with pY88-H4 antibodies followed by immunoblotting with H4 (upper panel). Lower panel is input lysate immunblotted with H4 antibodies.
To assess direct binding of Ack1 to H4, in vitro kinase assay was performed using purified Ack1 and H4 (New England Biolabs). Human Ack1 were expressed in insect cells and purified to homogeneity (unpublished data). Immunoblotting with pY88-H4 and pTyr antibodies confirmed that indeed H4 is directly Tyr-phosphorylated by Ack1 (FIG. 9B).
In general terms: In western blotting, separated proteins are transferred to a membrane and probed.

For orientation: pIC50 means the negative decadic logarithm of the IC50, by convention in mol/L. With `c1ccc(-c2oc3ncnc(NC[C@@H]4CCCO4)c3c2-c2ccccc2)cc1` [AIM-100], the negative-log IC50 (pIC50) in assay [1] is 5.15; in assay [2] it was 5.40. In assay [3], the “SLC6A4 mRNA expression” value is given as “significant loss of SLC6A4 mRNA expression”. The “H4 Tyr-phosphorylation by ACK1” value in assay [4] is given as “H4 Tyr-phosphorylation is abrogated”.
